Test results from US8999940B2 (Ipsen Pharma S.A.S., priority 2008, dated 2015).
Where a SMILES comes first, the peptide text is derived from it. Where no end group is shown, it is not given here. [ ]: non-standard residue; d: D form. The star is where a group is joined. Phe(4-Me) = Cc1ccc(C[C@H](N)C(=O)O)cc1; Desaminotyrosyl = O=C(CCc1ccc(O)cc1)*; Hyp = O=C(O)[C@@H]1C[C@@H](O)CN1; Ac6c = NC1(C(=O)O)CCCCC1; Nle = CCCC[C@H](N)C(=O)O; Ac5c = NC1(C(=O)O)CCCC1; Aib = CC(C)(N)C(=O)O

Key:
[1] = target: T1, human recombinant GIP receptor (Homo sapiens, UniProt P48546); test: In vitro hGIP receptor binding assay
T1 construct: expressed in transfected cells; host or cells: CHO-K1 clonal cells (membrane preparation)
T1 sequence (P48546 22-466): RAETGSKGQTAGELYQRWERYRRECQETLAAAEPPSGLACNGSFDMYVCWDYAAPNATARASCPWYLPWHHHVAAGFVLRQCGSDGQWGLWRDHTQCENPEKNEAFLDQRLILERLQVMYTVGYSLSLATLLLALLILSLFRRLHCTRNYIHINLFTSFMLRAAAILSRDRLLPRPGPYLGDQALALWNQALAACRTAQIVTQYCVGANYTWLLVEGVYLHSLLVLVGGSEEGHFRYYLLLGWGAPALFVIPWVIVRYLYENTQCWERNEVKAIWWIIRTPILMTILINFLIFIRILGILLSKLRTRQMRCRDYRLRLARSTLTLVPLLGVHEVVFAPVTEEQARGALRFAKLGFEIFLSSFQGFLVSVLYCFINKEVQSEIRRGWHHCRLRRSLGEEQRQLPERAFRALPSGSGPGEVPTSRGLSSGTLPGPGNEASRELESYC
Method: A. In Vitro hGIP Receptor Binding Assay […] The incubations were terminated by rapid filtration through GF/C filters (pre-soaked in 0.5% polyethylenimine) using a Brandel filtration manifold. Each tube and filter were then washed three times with 5-ml aliquots of ice-cold buffer.

[2] = Rat plasma half-life assay; type: in vitro ADME; details: 37° C., LC-MS, read-out: Rat Plasma T½ (converted)
[3] = Human plasma half-life assay; type: in vitro ADME; details: 37° C., LC-MS, read-out: Human Plasma T½ (converted)

## CC[C@H](C)[C@H](NC(=O)[C@H](CCCCN)NC(=O)[C@H](CC(=O)O)NC(=O)[C@H](CCSC)NC(=O)[C@H](C)NC(=O)[C@@H](NC(=O)C1(NC(=O)[C@H](Cc2ccc(O)cc2)NC(=O)[C@H](CC(=O)O)NC(=O)[C@H](CO)NC(=O)[C@@H](NC(=O)[C@H](Cc2ccccc2)NC(=O)[C@@H](NC(=O)CNC(=O)[C@H](CCC(=O)O)NC(=O)C(C)(C)NC(=O)[C@@H](N)Cc2ccncc2)[C@@H](C)O)[C@@H](C)CC)CCCC1)[C@@H](C)CC)C(=O)N[C@@H](Cc1c[nH]cn1)C(=O)N[C@@H](CCC(N)=O)C(=O)N[C@@H](CCC(N)=O)C(=O)N[C@@H](CC(=O)O)C(=O)N[C@@H](Cc1ccccc1)C(=O)N[C@H](C(=O)N[C@@H](CC(N)=O)C(=O)N[C@@H](Cc1c[nH]c2ccccc12)C(=O)N[C@@H](CC(C)C)C(=O)N[C@@H](CC(C)C)C(=O)N[C@@H](C)C(=O)N[C@@H](CCC(N)=O)C(=O)N[C@@H](CCCCN)C(=O)NCC(=O)N[C@@H](CCCCN)C(=O)N[C@@H](CCCCN)C(=O)N[C@@H](CC(N)=O)C(=O)N[C@@H](CC(=O)O)C(=O)N[C@@H](Cc1c[nH]c2ccccc12)C(=O)N[C@@H](CCCCN)C(=O)N[C@@H](Cc1c[nH]cn1)C(=O)N[C@@H](CC(N)=O)C(=O)N[C@H](C(=O)NC1(C(=O)N[C@@H](CCC(N)=O)C(=O)O)CCCC1)[C@@H](C)CC)C(C)C [Example 33, (4-Pal^1, Aib^2, A5c^11, 41)hGIP(1-42)-OH]
[1]
  Ki: 8.14 nM
[2]
  half-life at 0.1 mg/ml: 15.5 h
[3]
  half-life at 0.1 mg/ml: 32.8 h

## CCCC[C@H](NC(=O)[C@H](C)NC(=O)[C@@H](NC(=O)C1(NC(=O)[C@H](Cc2ccc(O)cc2)NC(=O)[C@H](CC(=O)O)NC(=O)[C@H](CO)NC(=O)[C@@H](NC(=O)[C@H](Cc2ccccc2)NC(=O)[C@@H](NC(=O)CNC(=O)[C@H](CCC(=O)O)NC(=O)C(C)(C)NC(=O)[C@@H](N)Cc2cc(Br)c(O)c(Br)c2)[C@@H](C)O)[C@@H](C)CC)CCCC1)[C@@H](C)CC)C(=O)N[C@@H](CC(=O)O)C(=O)N[C@@H](CCCCN)C(=O)N[C@H](C(=O)N[C@@H](Cc1c[nH]cn1)C(=O)N[C@@H](CCC(N)=O)C(=O)N[C@@H](CCC(N)=O)C(=O)N[C@@H](CC(=O)O)C(=O)N[C@@H](Cc1ccccc1)C(=O)N[C@H](C(=O)N[C@@H](CC(N)=O)C(=O)N[C@@H](Cc1c[nH]c2ccccc12)C(=O)N[C@@H](CC(C)C)C(=O)N[C@@H](CC(C)C)C(=O)N[C@@H](C)C(=O)N[C@@H](CCC(N)=O)C(=O)N[C@@H](CCCCN)C(=O)NCC(=O)N[C@@H](CCCCN)C(=O)N[C@@H](CCCCN)C(=O)N[C@@H](CC(N)=O)C(=O)N[C@@H](CC(=O)O)C(=O)N[C@@H](Cc1c[nH]c2ccccc12)C(=O)N[C@@H](CCCCN)C(=O)N[C@@H](Cc1c[nH]cn1)C(=O)N[C@@H](CC(N)=O)C(=O)N[C@H](C(=O)N[C@H](C(=O)N[C@@H](CCC(N)=O)C(=O)O)[C@@H](C)O)[C@@H](C)CC)C(C)C)[C@@H](C)CC [Example 13, (3,5Br-Tyr^1, Aib^2, A5c^11, Nle^14)hGIP(1-42)-OH]
[1]
  Ki: 21.8 nM
[2]
  half-life at 0.1 mg/ml: 13.1 h
[3]
  half-life at 0.1 mg/ml: 50.6 h

## CCCC[C@H](NC(=O)[C@H](C)NC(=O)[C@@H](NC(=O)[C@H](CO)NC(=O)[C@H](Cc1ccc(O)cc1)NC(=O)[C@H](CC(=O)O)NC(=O)[C@H](CO)NC(=O)[C@@H](NC(=O)[C@H](Cc1ccccc1)NC(=O)[C@@H](NC(=O)CNC(=O)[C@H](CCC(=O)O)NC(=O)C(C)(C)NC(=O)CCc1ccc(O)cc1)[C@@H](C)O)[C@@H](C)CC)[C@@H](C)CC)C(=O)N[C@@H](CC(=O)O)C(=O)N[C@@H](CCCCN)C(=O)N[C@H](C(=O)N[C@@H](Cc1c[nH]cn1)C(=O)N[C@@H](CCC(N)=O)C(=O)N[C@@H](CCC(N)=O)C(=O)N[C@@H](CC(=O)O)C(=O)N[C@@H](Cc1ccccc1)C(=O)N[C@H](C(=O)N[C@@H](CC(N)=O)C(=O)N[C@@H](Cc1c[nH]c2ccccc12)C(=O)N[C@@H](CC(C)C)C(=O)N[C@@H](CC(C)C)C(=O)N[C@@H](C)C(=O)N[C@@H](CCC(N)=O)C(=O)N[C@@H](CCCCN)C(N)=O)C(C)C)[C@@H](C)CC [Example 5, (4Hppa^1, Aib^2, Nle^14)hGIP(1-30)-NH2] (Desaminotyrosyl-[Aib]EGTFISDYSIA[Nle]DKIHQQDFVNWLLAQK-NH2)
[1]
  Ki: 2.95 nM
[2]
  half-life at 0.1 mg/ml: 83.5 h
[3]
  half-life at 0.1 mg/ml: 50.6 h

## Desaminotyrosyl-A[Hyp]GTF[Ac6c]SDYSIAMDKIHQQDFVNWLLAQKGKKNDWKHNITQ [Example 7, (4Hppa^1, 4Hyp^3, A6c^7)hGIP(1-42)-OH]
[1]
  Ki: 251 nM
[2]
  half-life at 0.1 mg/ml: 6.8 h
[3]
  half-life at 0.1 mg/ml: 38.5 h

## CCCC[C@H](NC(=O)[C@H](C)NC(=O)[C@@H](NC(=O)C1(NC(=O)[C@H](Cc2ccc(O)cc2)NC(=O)[C@H](CC(=O)O)NC(=O)[C@H](CO)NC(=O)[C@@H](NC(=O)[C@H](Cc2ccccc2)NC(=O)[C@@H](NC(=O)CNC(=O)[C@H](CCC(=O)O)NC(=O)C(C)(C)NC(=O)[C@@H](N)Cc2cc(I)c(O)c(I)c2)[C@@H](C)O)[C@@H](C)CC)CCCC1)[C@@H](C)CC)C(=O)N[C@@H](CC(=O)O)C(=O)N[C@@H](CCCCN)C(=O)N[C@H](C(=O)N[C@@H](Cc1c[nH]cn1)C(=O)N[C@@H](CCC(N)=O)C(=O)N[C@@H](CCC(N)=O)C(=O)N[C@@H](CC(=O)O)C(=O)N[C@@H](Cc1ccccc1)C(=O)N[C@H](C(=O)N[C@@H](CC(N)=O)C(=O)N[C@@H](Cc1c[nH]c2ccccc12)C(=O)N[C@@H](CC(C)C)C(=O)N[C@@H](CC(C)C)C(=O)N[C@@H](C)C(=O)N[C@@H](CCC(N)=O)C(=O)N[C@@H](CCCCN)C(=O)NCC(=O)N[C@@H](CCCCN)C(=O)N[C@@H](CCCCN)C(=O)N[C@@H](CC(N)=O)C(=O)N[C@@H](CC(=O)O)C(=O)N[C@@H](Cc1c[nH]c2ccccc12)C(=O)N[C@@H](CCCCN)C(=O)N[C@@H](Cc1c[nH]cn1)C(=O)N[C@@H](CC(N)=O)C(=O)N[C@H](C(=O)N[C@H](C(=O)N[C@@H](CCC(N)=O)C(=O)O)[C@@H](C)O)[C@@H](C)CC)C(C)C)[C@@H](C)CC [Example 17, (3,51-Tyr^1, Aib^2, A5c^11, Nle^14)hGIP(1-42)-OH]
[1]
  Ki: 77.9 nM
[2]
  half-life at 0.1 mg/ml: 30.1 h
[3]
  half-life at 0.1 mg/ml: > 72 h

## [Phe(4-Me)][Aib]EGTFISDY[Ac5c]IAMDKIHQQDFVNWLLAQKGKKNDWKHNITQH-OH [Example 78, (4Me-Phe^1, Aib^2, A5c^11, His^43)hGIP(1-43)-OH]
[1]
  Ki: 9.13 nM
[2]
  half-life at 0.1 mg/ml: > 52 h
[3]
  half-life at 0.1 mg/ml: 14.9 h

## CC[C@H](C)[C@H](NC(=O)[C@H](CCCCN)NC(=O)[C@H](CC(=O)O)NC(=O)[C@H](CCSC)NC(=O)[C@H](C)NC(=O)[C@@H](NC(=O)C1(NC(=O)[C@H](Cc2ccc(O)cc2)NC(=O)[C@H](CC(=O)O)NC(=O)[C@H](CO)NC(=O)[C@@H](NC(=O)[C@H](Cc2ccccc2)NC(=O)[C@@H](NC(=O)CNC(=O)[C@H](CCC(=O)O)NC(=O)C(C)(C)NC(=O)[C@@H](N)Cc2ccc(O)c([N+](=O)[O-])c2)[C@@H](C)O)[C@@H](C)CC)CCCC1)[C@@H](C)CC)C(=O)N[C@@H](Cc1c[nH]cn1)C(=O)N[C@@H](CCC(N)=O)C(=O)N[C@@H](CCC(N)=O)C(=O)N[C@@H](CC(=O)O)C(=O)N[C@@H](Cc1ccccc1)C(=O)N[C@H](C(=O)N[C@@H](CC(N)=O)C(=O)N[C@@H](Cc1c[nH]c2ccccc12)C(=O)N[C@@H](CC(C)C)C(=O)N[C@@H](CC(C)C)C(=O)N[C@@H](C)C(=O)N[C@@H](CCC(N)=O)C(=O)N[C@@H](CCCCN)C(=O)NCC(=O)N[C@@H](CCCCN)C(=O)N[C@@H](CCCCN)C(=O)N[C@@H](CC(N)=O)C(=O)N[C@@H](CC(=O)O)C(=O)N[C@@H](Cc1c[nH]c2ccccc12)C(=O)N[C@@H](CCCCN)C(=O)N[C@@H](Cc1c[nH]cn1)C(=O)N[C@@H](CC(N)=O)C(=O)N[C@H](C(=O)NC1(C(=O)N[C@@H](CCC(N)=O)C(=O)O)CCCC1)[C@@H](C)CC)C(C)C [Example 36, (3NO2-Tyr^1, Aib^2, A5c^11, 41)hGIP(1-42)-OH]
[1]
  Ki: 11.2 nM
[2]
  half-life at 0.1 mg/ml: 11.7 h
[3]
  half-life at 0.1 mg/ml: > 72 h

## CCCC[C@H](NC(=O)[C@H](C)NC(=O)[C@@H](NC(=O)C1(NC(=O)[C@H](Cc2ccc(O)cc2)NC(=O)[C@H](CC(=O)O)NC(=O)[C@H](CO)NC(=O)[C@@H](NC(=O)[C@H](Cc2ccccc2)NC(=O)[C@@H](NC(=O)CNC(=O)[C@H](CCC(=O)O)NC(=O)C(C)(C)NC(=O)[C@@H](N)Cc2ccc(O)c(Br)c2)[C@@H](C)O)[C@@H](C)CC)CCCC1)[C@@H](C)CC)C(=O)N[C@@H](CC(=O)O)C(=O)N[C@@H](CCCCN)C(=O)N[C@H](C(=O)N[C@@H](Cc1c[nH]cn1)C(=O)N[C@@H](CCC(N)=O)C(=O)N[C@@H](CCC(N)=O)C(=O)N[C@@H](CC(=O)O)C(=O)N[C@@H](Cc1ccccc1)C(=O)N[C@H](C(=O)N[C@@H](CC(N)=O)C(=O)N[C@@H](Cc1c[nH]c2ccccc12)C(=O)N[C@@H](CC(C)C)C(=O)N[C@@H](CC(C)C)C(=O)N[C@@H](C)C(=O)N[C@@H](CCC(N)=O)C(=O)N[C@@H](CCCCN)C(=O)NCC(=O)N[C@@H](CCCCN)C(=O)N[C@@H](CCCCN)C(=O)N[C@@H](CC(N)=O)C(=O)N[C@@H](CC(=O)O)C(=O)N[C@@H](Cc1c[nH]c2ccccc12)C(=O)N[C@@H](CCCCN)C(=O)N[C@@H](Cc1c[nH]cn1)C(=O)N[C@@H](CC(N)=O)C(=O)N[C@H](C(=O)N[C@H](C(=O)N[C@@H](CCC(N)=O)C(=O)O)[C@@H](C)O)[C@@H](C)CC)C(C)C)[C@@H](C)CC [Example 15, (3Br-Tyr^1, Aib^2, A5c^11, Nle^14)hGIP(1-42)-OH]
[1]
  Ki: 0.6 nM
[2]
  half-life at 0.1 mg/ml: 22.9 h
[3]
  half-life at 0.1 mg/ml: 50.6 h
